{"source": "patent US5716943A", "about": "“Phosphinic acid derivatives with metallopeptidase inhibitory activity” (Zambon Group. S.p.A., priority 1995, dated 1998)", "key": {"ACE": {"molecular_target": "T1, ACE (Oryctolagus cuniculus, UniProt P12822)", "T1 construct": "purchased SIGMA; host or cells: rabbit lung", "T1 sequence (P12822 34-1310)": "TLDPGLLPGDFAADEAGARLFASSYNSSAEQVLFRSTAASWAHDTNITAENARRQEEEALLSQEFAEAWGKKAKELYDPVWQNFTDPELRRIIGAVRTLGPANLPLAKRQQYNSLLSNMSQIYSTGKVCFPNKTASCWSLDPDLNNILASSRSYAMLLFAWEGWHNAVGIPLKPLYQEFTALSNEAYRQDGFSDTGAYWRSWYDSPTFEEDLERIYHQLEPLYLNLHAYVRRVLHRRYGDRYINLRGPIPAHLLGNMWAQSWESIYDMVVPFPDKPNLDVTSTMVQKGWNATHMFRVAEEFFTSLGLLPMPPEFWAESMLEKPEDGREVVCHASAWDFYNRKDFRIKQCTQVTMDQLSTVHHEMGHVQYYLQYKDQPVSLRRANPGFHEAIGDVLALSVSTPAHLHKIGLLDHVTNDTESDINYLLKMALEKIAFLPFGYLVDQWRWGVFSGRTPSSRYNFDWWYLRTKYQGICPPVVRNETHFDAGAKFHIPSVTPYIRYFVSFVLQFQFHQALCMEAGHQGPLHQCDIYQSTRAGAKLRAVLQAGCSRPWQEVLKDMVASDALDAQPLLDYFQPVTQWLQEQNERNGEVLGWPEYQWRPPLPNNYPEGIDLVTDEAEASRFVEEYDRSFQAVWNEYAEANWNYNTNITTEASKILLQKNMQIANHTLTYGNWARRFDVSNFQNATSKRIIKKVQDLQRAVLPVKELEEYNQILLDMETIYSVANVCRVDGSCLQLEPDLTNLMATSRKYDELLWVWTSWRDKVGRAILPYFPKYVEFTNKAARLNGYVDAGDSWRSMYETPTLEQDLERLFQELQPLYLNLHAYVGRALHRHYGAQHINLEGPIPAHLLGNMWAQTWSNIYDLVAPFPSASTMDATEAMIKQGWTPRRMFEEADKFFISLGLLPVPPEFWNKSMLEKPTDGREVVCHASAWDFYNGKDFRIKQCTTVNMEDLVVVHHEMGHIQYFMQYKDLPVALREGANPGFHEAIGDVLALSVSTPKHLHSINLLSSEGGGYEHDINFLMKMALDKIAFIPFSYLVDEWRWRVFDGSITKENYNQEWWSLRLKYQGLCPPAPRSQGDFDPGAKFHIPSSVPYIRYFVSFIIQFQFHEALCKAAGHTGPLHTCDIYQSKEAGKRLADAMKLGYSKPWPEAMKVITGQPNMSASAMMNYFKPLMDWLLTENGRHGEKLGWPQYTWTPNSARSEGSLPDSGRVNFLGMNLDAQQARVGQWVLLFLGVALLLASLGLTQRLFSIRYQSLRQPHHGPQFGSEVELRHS", "experiment": "ACE-inhibitory activity, FAPGG substrate, absorbance at 340 nm", "type": "biochemical", "conditions": "ACE purified by lung rabbit; FAPGG 0.8 mM; 37° C.; compounds of formula I tested as lithium salts", "method": "b) ACE-inhibitory activity\n[…] of ACE (250 mU/ml purified by lung rabbit, EC 3.4.15.1 SIGMA) were preincubated with 50 μl of the compound of formula I or of the comparison compound in thermostated cuvettes at 37° C.\nThe reaction was started by adding furylacryloylphenylalanylglycylglycine 0.8 mM (FAPGG-SIGMA).\nContemporaneously, by using a Beckman DU-50 spectrophotometer provided with a program for calculating delta A/minutes and regression coefficients of the enzyme kinetics curves, the absorbance at 340 10^-9 m was recorded in continuo for 5 minutes.\nThe percentage of enzyme inhibition in the preparations treated with the compounds of formula I or with the comparison compounds with respect to the untreated preparations was expressed as IC50 (nM) value.\n(§1) The compounds of formula I were tested in the form of lithium salts."}, "NEP": {"molecular_target": "T2, NEP (Rattus norvegicus, UniProt P07861)", "T2 construct": "evaluated in rat kidney cortex membranes; from tissue; host or cells: kidney cortex membranes of male Sprague-Dawley rats", "T2 sequence (P07861 1-750)": "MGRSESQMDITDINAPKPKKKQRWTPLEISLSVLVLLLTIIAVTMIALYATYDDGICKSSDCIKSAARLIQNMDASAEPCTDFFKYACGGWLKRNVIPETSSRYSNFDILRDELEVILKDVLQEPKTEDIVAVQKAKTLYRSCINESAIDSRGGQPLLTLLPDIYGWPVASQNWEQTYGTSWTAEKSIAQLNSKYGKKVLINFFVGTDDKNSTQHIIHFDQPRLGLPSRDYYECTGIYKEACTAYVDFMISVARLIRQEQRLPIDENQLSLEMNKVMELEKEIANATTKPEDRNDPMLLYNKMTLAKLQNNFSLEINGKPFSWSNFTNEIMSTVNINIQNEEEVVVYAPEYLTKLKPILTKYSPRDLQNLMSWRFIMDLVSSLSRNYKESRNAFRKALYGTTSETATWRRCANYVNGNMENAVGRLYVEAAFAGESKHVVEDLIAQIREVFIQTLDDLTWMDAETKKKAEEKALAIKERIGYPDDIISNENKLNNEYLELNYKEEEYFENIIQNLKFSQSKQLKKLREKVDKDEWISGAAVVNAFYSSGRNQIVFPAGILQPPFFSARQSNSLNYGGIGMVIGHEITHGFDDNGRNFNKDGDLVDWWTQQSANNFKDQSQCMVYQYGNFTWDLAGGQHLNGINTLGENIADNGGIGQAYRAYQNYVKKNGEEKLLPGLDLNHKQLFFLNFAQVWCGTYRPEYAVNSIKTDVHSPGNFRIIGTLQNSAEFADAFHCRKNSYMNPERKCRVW", "experiment": "NEP-inhibitory activity in rat kidney cortex membranes, [3H][Leu5]-enkephaline substrate", "type": "biochemical", "conditions": "[3H][Leu5]-enkephaline 15 nM, 20 minutes at 30° C., pH 7.4, compounds of formula I tested as lithium salts", "method": "a) NEP-inhibitory activity\nThe NEP-inhibitory activity was evaluated in rat kidney cortex membranes prepared according to the procedure described by T. Maeda et al. in Biochim biophys. Acta 1983, 731 (1), 115-120.\nBy working at 0°-4° C. kidneys were removed from male Sprague-Dawley rats weighing approximately 300 g.\nKidney cortex was carefully dissected, finely minced and suspended in a homogenization buffer (10 mM sodium phosphate pH 7.4 containing 1 mM MgCl2, 30 mM NaCl, 0.02% NaN3) 1:15 weight/volume.\nThe tissue was then homogenized for 30 seconds by using an Ultra-Turrax homogenizer.\nApproximately 10 ml of homogenate were layered over 10 ml of sucrose (41% weight/volume) and centrifuged at 31200 rpm for 30 minutes at 4° C. in a fixed angle rotor.\nThe membranes were collected from the buffer/sucrose interface, washed twice with 50 mM TRIS/HCl buffer (pH 7.4) and resuspended into the same buffer for storage.\nThe membranes were stored in small aliquots at -80° C. until use.\nThe NEP-inhibitory activity was evaluated according to the method described by C. Llorens et al., in Eur. I. Pharmacol., 69, (1981), 113-116, as reported hereinafter.\nAliquots of the membrane suspension prepared as above described (concentration 5 μg/ml of proteins) were preincubated in the presence of an aminopeptidase inhibitor (Bestatin--1 mM) for 10 minutes at 30° C.\n[^3 H][Leu^5 ]-enkephaline (15 nM) and buffer TRIS/HCl pH 7.4 (50 mM) were added in order to obtain a final volume of 100 μl.\nIncubation (20 minutes at 30° C.) was stopped by adding HCl 0.1 M (100 μl).\nThe formation of the metabolite [^3 H]Tyr-Gly-Gly was quantified, after separation of the unreacted substrate by chromatography on polystirene columns (Porapak Q), by measuring the relative radioactivity through liquid scintillation.\nThe percentage of inhibition of the metabolite formation in the membrane preparations treated with the compounds of formula I and with the comparative compounds with respect to the untreated membrane preparations was expressed as IC50 (nM) value.\nas §1"}}, "data": [{"smiles": "COCCOCC(CC1(C(=O)N[C@H]2CC[C@@H](C(=O)O)CC2)CCCC1)C(=O)O", "note": "(relative stereo) [Candoxatrilat, 3-[1-[(Cis-4-carboxycyclohexyl)carbamoyl]cyclopentyl]-2-(2-methoxyethoxymethyl)-propionic acid, reference compound]", "values": [{"measurement": "ACE-inhibitory activity IC50 (nM)", "setting": "ACE", "result": "not active"}, {"measurement": "IC50", "setting": "NEP", "result": 160, "unit": "nM"}]}, {"smiles": "C[C@H](CS)C(=O)N1CCC[C@H]1C(=O)O", "note": "[Captopril, reference compound]", "values": [{"measurement": "NEP-inhibitory activity IC50 (nM)", "setting": "NEP", "result": "not active"}]}, {"smiles": "CC(C)CC(CP(=O)(O)CNC(=O)OCc1ccccc1)C(=O)N[C@@H](Cc1ccc(-c2ccccc2)cc1)C(=O)O", "note": "(stereo partly drawn) [Compound 2, N-[3-[(benzyloxycarbonylaminomethyl)(hydroxy)phosphinyl]-2-isobutyl-propionyl]-(1,1'-biphenyl-4-yl)-L-alanine]", "values": [{"measurement": "IC50", "setting": "ACE", "result": 6.4, "unit": "nM"}, {"measurement": "IC50", "setting": "NEP", "result": 36, "unit": "nM"}]}, {"smiles": "O=C(NCP(=O)(O)CC(Cc1ccccc1)C(=O)N[C@@H](Cc1ccc(-c2ccccc2)cc1)C(=O)O)OCc1ccccc1", "note": "(stereo partly drawn) [Compound 3, N-[3-[(benzyloxycarbonylaminomethyl)(hydroxy)phosphinyl]-2-benzyl-propionyl]-(1,1'-biphenyl-4-yl)-L-alanine]", "values": [{"measurement": "IC50", "setting": "ACE", "result": 30, "unit": "nM"}, {"measurement": "IC50", "setting": "NEP", "result": 252, "unit": "nM"}]}, {"smiles": "O=C(NCP(=O)(O)CC(Cc1cccs1)C(=O)N[C@@H](Cc1ccc(-c2ccccc2)cc1)C(=O)O)OCc1ccccc1", "note": "(stereo partly drawn) [Compound 4, N-[3-[(benzyloxycarbonylaminomethyl)(hydroxy)phosphinyl]-2-(2-thienylmethyl)propionyl]-(1,1'-biphenyl-4-yl)-L-alanine]", "values": [{"measurement": "IC50", "setting": "ACE", "result": 12, "unit": "nM"}, {"measurement": "IC50", "setting": "NEP", "result": 335, "unit": "nM"}]}, {"smiles": "CC(C)CC(CP(=O)(O)CNC(=O)OCc1ccccc1)C(=O)N[C@@H](Cc1ccc(-c2nccs2)cc1)C(=O)O", "note": "(stereo partly drawn) [Compound 5, N-[3-[(benzyloxycarbonylaminomethyl)(hydroxy)phosphinyl]-2-isobutyl-propionyl]-[4-(2-thiazolyl)-phenyl]-L-alanine]", "values": [{"measurement": "IC50", "setting": "ACE", "result": 25, "unit": "nM"}, {"measurement": "IC50", "setting": "NEP", "result": 48.5, "unit": "nM"}]}]}
